According to patent EP1137644B9, “BENZOFURAN DERIVATIVES, THEIR PREPARATION AND USE” (H. Lundbeck A/S, priority 1998, dated 2000):
Structures can show the parent of a compound that is named as a salt.

Test system: Human 5-HT1A Receptors
Assay: Inhibition of 3H-5-CT binding to human 5-HT1A receptors
Conditions: at 100 nM; cloned human 5-HT1A receptors expressed in HeLa cells (HA7)
Method: The affinity of the compounds of the invention to 5-HT1A receptors was determined by measuring the inhibition of binding of a radioactive ligand at 5-HT1A receptors as described in the following test:
Inhibition of ^3H-5-CT Binding to Human 5-HT1A Receptors
By this method the inhibition by drugs of the binding of the 5-HT1A agonist ^3H-5-carboxamido tryptamine (^3H-5-CT) to cloned human 5-HT1A receptors stably expressed in transfected HeLa cells (HA7) (Fargin, A. et al, J. Biol. Chem., 1989, 264, 14848) is determined in vitro. The assay was performed as a modification of the method described by Harrington, M.A. et al, J. Pharmacol. Exp. Ther., 1994, 268, 1098. Human 5-HT1A receptors (40 µg of cell homogenate) were incubated for 15 minutes at 37 °C in 50 mM Tris buffer at pH 7.7 in the presence of ^3H-5-CT. Non-specific binding was determined by including 10 µM of metergoline. The reaction was terminated by rapid filtration through Unifilter GF/B filters on a Tomtec Cell Harvester. Filters were counted in a Packard Top Counter.

Row | Inhibition of ^3H- 5-CT binding % inhibition at 100 nM | SMILES
1 | 58% inh. at 100 nM | C#CCN(CCCc1c[nH]c2ccccc12)CCCC1(c2ccc(F)cc2)OCc2cc(C#N)ccc21 (stereo not shown) [Compound 4u, 1-[3-[[3-(1H-Indol-3-yl)propyl](prop-2-yn-1-yl)amino]propyl]-1-(4-fluorophenyl)-1,3-dihydroisobenzofuran-5-carbonitrile]
2 | 65% inh. at 100 nM | COc1ccccc1OCCCN(C)CCCC1(c2ccc(F)cc2)OCc2cc(C#N)ccc21 (stereo not shown) [Compound 4m, 1-(4-Fluorophenyl)-1-[3-[[3-(2-methoxyphenoxy)propyl]methylamino]propyl]-1,3-dihydroisobenzofuran-5-carbonitrile]
3 | 76% inh. at 100 nM | C=CCN(CCCc1cccc(OC)c1)CCCC1(c2ccc(F)cc2)OCc2cc(C#N)ccc21 (stereo not shown) [Compound 4l, 1-(4-Fluorophenyl)-1-[3-[[3-(3-methoxyphenyl)propyl](prop-2-en-1-yl)amino]propyl]-1,3-dihydroisobenzofuran-5-carbonitrile]

Same assay, conditions: cloned human 5-HT1A receptors expressed in HeLa cells (HA7), 15 minutes at 37 °C, pH 7.7

Row | SMILES | IC50
4 | CN(CCCCc1cccc2c1OCCO2)CCCC1(c2ccc(F)cc2)OCc2cc(C#N)ccc21 (single isomer, unassigned; (+)) [Compound 1a, (+)-1-[3-[[4-(1,4-Benzodioxan-5-yl)butyl]methylamino]propyl]-1-(4-fluorophenyl)-1,3-dihydroisobenzofuran-5-carbonitrile] | 39 nM

Test system: serotonin reuptake
Assay: Inhibition of 3H-5-HT uptake into rat brain synaptosomes
Type: biochemical
Conditions: ^3H-5-HT accumulation into whole rat brain synaptosomes
Method: Inhibition of ^3H-5-HT Uptake Into Rat Brain Synaptosomes
Using this method, the ability of drugs to inhibit the accumulation of ^3H-5-HT into whole rat brain synaptosomes is determined in vitro. The assay was performed as described by Hyttel, J., Psychopharmacology 1978, 60, 13.

Row | SMILES | IC50
5 | COc1ccccc1N1CCN(CCCC2(c3ccc(F)cc3)OCc3cc(C#N)ccc32)CC1 (stereo not shown) [Compound 2a, 1-(4-Fluorophenyl)-1-[3-[4-(2-methoxyphenyl)piperazinyl]propyl]-1,3-dihydroisobenzofuran-5-carbonitrile] | 340 nM
6 | N#Cc1ccc2c(c1)COC2(CCCN1CCC(c2c[nH]c3cc(Cl)ccc23)CC1)c1ccc(F)cc1 (stereo not shown) [Compound 2o, 1-[3-[4-(6-chloro-1H-Indol-3-yl)piperidinyl]propyl]-1-(4-fluorophenyl)-1,3-dihydroisobenzofuran-5-carbonitrile] | 31 nM
7 | CN(CCCCc1cccc2c1OCCO2)CCCC1(c2ccc(F)cc2)OCc2cc(C#N)ccc21 (single isomer, unassigned; (+)) [Compound 1a, (+)-1-[3-[[4-(1,4-Benzodioxan-5-yl)butyl]methylamino]propyl]-1-(4-fluorophenyl)-1,3-dihydroisobenzofuran-5-carbonitrile] | 60 nM
8 | CN(CCCC1(c2ccc(F)cc2)OCc2cc(C#N)ccc21)CCc1c[nH]c2c(F)cccc12 (stereo not shown) [Compound 12b, 1-[3-[[2-(7-Fluoro-1H-indol-3-yl)ethyl]methylamino]propyl]-1-(4-fluorophenyl)-1,3-dihydroisobenzofuran-5-carbonitrile] | 10 nM
9 | CN(CCCc1cccc2c1OCCO2)CCCC1(c2ccc(F)cc2)OCc2cc(C#N)ccc21 (single isomer, unassigned; (+)) [Compound 1b, (+)-1-[3-[[3-(1,4-Benzodioxan-5-yl)propyl]methylamino]propyl]-1-(4-fluorophenyl)-1,3-dihydroisobenzofuran-5-carbonitrile oxalate] | 13 nM
10 | CN(CCCC1(c2ccc(F)cc2)OCc2cc(C#N)ccc21)CCc1cccc2c1OCCO2 (stereo not shown) [Compound 1c, 1-[3-[[2-(1,4-Benzodioxan-5-yl)ethyl]methylamino]propyl]-1-(4-fluorophenyl)-1,3-dihydroisobenzofuran-5-carbonitrile oxalate] | 85 nM
